{"source": "paper PMC7753040", "about": "“Discovery of a Potent RIPK3 Inhibitor for the Amelioration of Necroptosis-Associated Inflammatory Injury” (Frontiers in Cell and Developmental Biology, 2020)", "tested_on": "HeLa-MLKL (1–190) cells", "assay": "MLKL polymerization-induced necroptosis in HeLa-MLKL (1-190) cells (AP20187)", "type": "cell-based, human", "conditions": "doxycycline 1 μg/ml 24 h, 2 h pretreatment, AP20187 60 nM 24 h", "source_text": "Human colon cancer HT-29 and mouse fibrosarcoma L929 cells were from ATCC. Mouse embryonic fibroblasts (MEF), HT-29 cells stably expressing RIPK3-shRNA and shRNA resistant scramble Flag-tagged RIPK3 (W46), and NIH3T3 cell line stably expressing RIPK3 fused to mutant FK506-binding protein (NIH3T3-RIPK3) were kindly provided by Dr. Xiaodong Wang [National Institute of Biological Sciences (NIBS), Beijing]. HeLa-MLKL (1-190) cell line was a gift from Dr. Zhigao Wang (University of Texas Southwestern Medical Center at Dallas). These cells were cultured in Dulbecco’s modified Eagle’s medium (Hyclone) supplemeted with 10% fetal bovine serum (Invitrogen) and 2 mM L-glutamine (Invitrogen) in a humidified incubator at 37°C and 5% CO2. […]\nCells were seeded in 96-well plates and then treated as indicated. The cell viability was determined by assessment of ATP levels using the CellTiter-Glo Luminescent Cell Viability Assay kit following the manufacture’s instructions (Promega). Luminescence was calculated with SpectraMax i3x (Molecular Devices).\nIn vitro kinase activity assays using recombinant RIPK3 and RIPK1 were performed as described in the section “Materials and Methods.” Data represent mean value ± standard deviation. […] Cell viability was determined by measuring ATP levels. […] Cell viability was determined by measuring ATP levels. […]"}
{"smiles": "COc1nccnc1NS(=O)(=O)c1ccc(NC(=O)/C=C/c2ccc([N+](=O)[O-])s2)cc1", "note": "[necrosulfonamide, reference compound]", "values": [{"measurement": "polymerized MLKL-induced necroptosis", "result": "blocked"}]}
